Assay results reported in US7244431B2, “Allergy vaccines and their preparation” (priority 2000, dated 2007).

Columns and labels:
[1] = system: birch pollen allergic patients; experiment: Skin prick testing of allergic patients; format: in vivo, human; conditions: 100 μg/ml
Description: SPTs were performed on the individuals forearms as described ([…]. et al. (1997) J. Clin Invest. 99, 1673-168; Dreborg S: (1989) J. Am. Acad. DerMatol. 21, 820-821). […] In addition standardized skin prick solutions (birch pollen extract and histamine) (Allergopharma, Reinbek, Germany) were tested. Reactions were recorded 20 minutes after SPT by photography and by transferring the ballpoint pen-surrounded wheal area with a scotch tape to paper.

[2] = system: IgE antibodies in sera from birch pollen allergic patients; experiment: ELISA detection of peptide- and rBet v 1-specific IgE antibodies; format: binding, human
Description: Birch pollen allergic patients suffering from allergic rhinoconjunctivitis and/or asthma to birch pollen and related allergens were selected according to case history indicative for seasonal birch pollinosis and characterized by skin prick testing with birch pollen extract and serological CAP RAST (Pharmacia Diagnostics, Uppsala, Sweden) testing. Total IgE levels in the sera were determined by CAP RIST measurements (Pharmacia). […] Sera from 60 birch pollen allergic patients and a non-atopic individual were used for IgE competition studies. The birch pollen allergic patients group consisted of 25 males and 35 females with a mean age of 37 years (ranging from 19-60 years) (Table 2).
Subsequently, plates were incubated with 1:3 diluted sera from 60 birch pollen allergic patients and from a non-atopic individual overnight at 4° C. Bound IgE antibodies were detected with a 1:1000 diluted alkaline-phosphatase-coupled mouse monoclonal anti-human IgE antibody (Pharmingen, San Diego, Calif.).

## DGGSILKISNKYHTKGDHEVKAEQVKASKEC [Peptide P4, Bet v 1-derived synthetic peptide, position aa 110-139, one cysteine added]
[1]; individual 1
  mean wheal diameter: 0 mm
[1]; individual 2
  mean wheal diameter: 0 mm
[1]; individual 3
  mean wheal diameter: 0 mm
[1]; individual 4
  mean wheal diameter: 0 mm
[1]; individual 5
  mean wheal diameter: 0 mm
[1]; individual 6 (allergic, without birch pollen allergy)
  mean wheal diameter: 0 mm
[2]; serum of NHS, non-allergic control individual
  IgE (OD): — (Dashes indicate reactivities below the cut-off level (OD=0.050))
[2]; serum of patient 1
  IgE (OD): — (Dashes indicate reactivities below the cut-off level (OD=0.050))
[2]; serum of patient 2
  IgE (OD): — (Dashes indicate reactivities below the cut-off level (OD=0.050))
[2]; serum of patient 3
  IgE (OD): — (Dashes indicate reactivities below the cut-off level (OD=0.050))
[2]; serum of patient 4
  IgE (OD): — (Dashes indicate reactivities below the cut-off level (OD=0.050))
[2]; serum of patient 5
  IgE (OD): — (Dashes indicate reactivities below the cut-off level (OD=0.050))
[2]; serum of patient 6
  IgE (OD): — (Dashes indicate reactivities below the cut-off level (OD=0.050))
[2]; serum of patient 7
  IgE (OD): — (Dashes indicate reactivities below the cut-off level (OD=0.050))
[2]; serum of patient 8
  IgE (OD): — (Dashes indicate reactivities below the cut-off level (OD=0.050))
[2]; serum of patient 9
  IgE (OD): — (Dashes indicate reactivities below the cut-off level (OD=0.050))
[2]; serum of patient 10
  IgE (OD): — (Dashes indicate reactivities below the cut-off level (OD=0.050))
[2]; serum of patient 11
  IgE (OD): — (Dashes indicate reactivities below the cut-off level (OD=0.050))
[2]; serum of patient 12
  IgE (OD): — (Dashes indicate reactivities below the cut-off level (OD=0.050))
[2]; serum of patient 13
  IgE (OD): — (Dashes indicate reactivities below the cut-off level (OD=0.050))
[2]; serum of patient 14
  IgE (OD): — (Dashes indicate reactivities below the cut-off level (OD=0.050))
[2]; serum of patient 15
  IgE (OD): — (Dashes indicate reactivities below the cut-off level (OD=0.050))
[2]; serum of patient 16
  IgE (OD): — (Dashes indicate reactivities below the cut-off level (OD=0.050))
[2]; serum of patient 17
  IgE (OD): — (Dashes indicate reactivities below the cut-off level (OD=0.050))
[2]; serum of patient 18
  IgE (OD): — (Dashes indicate reactivities below the cut-off level (OD=0.050))
[2]; serum of patient 19
  IgE (OD): — (Dashes indicate reactivities below the cut-off level (OD=0.050))
[2]; serum of patient 20
  IgE (OD): — (Dashes indicate reactivities below the cut-off level (OD=0.050))
[2]; serum of patient 21
  IgE (OD): — (Dashes indicate reactivities below the cut-off level (OD=0.050))
[2]; serum of patient 22
  IgE (OD): — (Dashes indicate reactivities below the cut-off level (OD=0.050))
[2]; serum of patient 23
  IgE (OD): — (Dashes indicate reactivities below the cut-off level (OD=0.050))
[2]; serum of patient 24
  IgE (OD): — (Dashes indicate reactivities below the cut-off level (OD=0.050))
[2]; serum of patient 25
  IgE (OD): — (Dashes indicate reactivities below the cut-off level (OD=0.050))
[2]; serum of patient 26
  IgE (OD): — (Dashes indicate reactivities below the cut-off level (OD=0.050))
[2]; serum of patient 27
  IgE (OD): — (Dashes indicate reactivities below the cut-off level (OD=0.050))
[2]; serum of patient 28
  IgE (OD): — (Dashes indicate reactivities below the cut-off level (OD=0.050))
[2]; serum of patient 29
  IgE (OD): — (Dashes indicate reactivities below the cut-off level (OD=0.050))
[2]; serum of patient 30
  IgE (OD): — (Dashes indicate reactivities below the cut-off level (OD=0.050))
[2]; serum of patient 31
  IgE (OD): — (Dashes indicate reactivities below the cut-off level (OD=0.050))
[2]; serum of patient 32
  IgE (OD): — (Dashes indicate reactivities below the cut-off level (OD=0.050))
[2]; serum of patient 33
  IgE (OD): — (Dashes indicate reactivities below the cut-off level (OD=0.050))
[2]; serum of patient 34
  IgE (OD): — (Dashes indicate reactivities below the cut-off level (OD=0.050))
[2]; serum of patient 35
  IgE (OD): — (Dashes indicate reactivities below the cut-off level (OD=0.050))
[2]; serum of patient 36
  IgE (OD): — (Dashes indicate reactivities below the cut-off level (OD=0.050))
[2]; serum of patient 37
  IgE (OD): — (Dashes indicate reactivities below the cut-off level (OD=0.050))
[2]; serum of patient 38
  IgE (OD): — (Dashes indicate reactivities below the cut-off level (OD=0.050))
[2]; serum of patient 39
  IgE (OD): — (Dashes indicate reactivities below the cut-off level (OD=0.050))
[2]; serum of patient 40
  IgE (OD): — (Dashes indicate reactivities below the cut-off level (OD=0.050))
[2]; serum of patient 41
  IgE (OD): — (Dashes indicate reactivities below the cut-off level (OD=0.050))
[2]; serum of patient 42
  IgE (OD): — (Dashes indicate reactivities below the cut-off level (OD=0.050))
[2]; serum of patient 43
  IgE (OD): — (Dashes indicate reactivities below the cut-off level (OD=0.050))
[2]; serum of patient 44
  IgE (OD): — (Dashes indicate reactivities below the cut-off level (OD=0.050))
[2]; serum of patient 45
  IgE (OD): — (Dashes indicate reactivities below the cut-off level (OD=0.050))
[2]; serum of patient 46
  IgE (OD): — (Dashes indicate reactivities below the cut-off level (OD=0.050))
[2]; serum of patient 47
  IgE (OD): — (Dashes indicate reactivities below the cut-off level (OD=0.050))
[2]; serum of patient 48
  IgE (OD): — (Dashes indicate reactivities below the cut-off level (OD=0.050))
[2]; serum of patient 49
  IgE (OD): — (Dashes indicate reactivities below the cut-off level (OD=0.050))
[2]; serum of patient 50
  IgE (OD): — (Dashes indicate reactivities below the cut-off level (OD=0.050))
[2]; serum of patient 51
  IgE (OD): — (Dashes indicate reactivities below the cut-off level (OD=0.050))
[2]; serum of patient 52
  IgE (OD): — (Dashes indicate reactivities below the cut-off level (OD=0.050))
[2]; serum of patient 53
  IgE (OD): — (Dashes indicate reactivities below the cut-off level (OD=0.050))
[2]; serum of patient 54
  IgE (OD): — (Dashes indicate reactivities below the cut-off level (OD=0.050))
[2]; serum of patient 55
  IgE (OD): — (Dashes indicate reactivities below the cut-off level (OD=0.050))
[2]; serum of patient 56
  IgE (OD): — (Dashes indicate reactivities below the cut-off level (OD=0.050))
[2]; serum of patient 57
  IgE (OD): — (Dashes indicate reactivities below the cut-off level (OD=0.050))
[2]; serum of patient 58
  IgE (OD): — (Dashes indicate reactivities below the cut-off level (OD=0.050))
[2]; serum of patient 59
  IgE (OD): — (Dashes indicate reactivities below the cut-off level (OD=0.050))
[2]; serum of patient 60
  IgE (OD): — (Dashes indicate reactivities below the cut-off level (OD=0.050))
